These results are taken from PubChem BioAssay (NCI).

Experiment in all cases: NCI-60 cell line screen, 48 h
In assay [1] the test system is SW-620 colon.
Assay [2] deals with UACC-257 melanoma.
For assay [3], the system named is OVCAR-4 ovarian.
The test system of assay [4] is SR leukemia.
Assay [5] has as its system EKVX NSCLC.
Assay [6] has as its system HS 578T breast.
Assay [7] has as its system SK-MEL-5 melanoma.
Assay [8] relates to SF-539 CNS.

SMILES strings stand for the structures. Several values for one entry are separate records, joined by “and”; a condition that tells them apart may be missing. Equal values may be shown once.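 Cells were grown in 96-well plates and exposed to each compound for 48 hours at five concentrations; endpoints were interpolated linearly between bracketing concentrations, or set to the highest concentration if not reached. The concentration for 50% growth inhibition is given as GI50. The concentration for full growth arrest is given as TGI.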

`CCN(CC)CCCNc1[nH]ncc2c(C)c3nc4ccccc4c3cc12`: the GI50 in assay [1] is 0.319 µM and 0.529 µM; in assay [2], 1.4 µM; in assay [3] it was 0.397 µM; in assay [5], 0.887 µM; in assay [6], 0.449 µM; in assay [7], 1.41 µM. In addition, the GI50 in assay [8] is 0.373 µM. Further, the TGI in assay [1] was 2.92 µM and 6.98 µM; in assay [2], 7.05 µM and 6.14 µM; in assay [3], 1.75 µM and 2.42 µM; in assay [4], 1.12 µM; in assay [5], 3.44 µM and 8.38 µM; in assay [6], 2.13 µM and 6.38 µM. Also, the TGI in assay [7] was 2.78 µM and 5.05 µM; in assay [8], 1.81 µM and 6.09 µM.
As for `CN(C)c1ccc(/C=N/NC(=O)c2cccc3ccccc23)c(Cl)c1`, the GI50 is 0.578 µM in assay [1]; 1.07 µM in assay [2]; 11.6 µM in assay [3]; 0.36 µM in assay [4]; 3.51 µM in assay [5]; 1.27 µM in assay [6]. In addition, the figures for the GI50 in assay [7] and in assay [8] were 0.922 µM and 1.73 µM, respectively. Also, the TGI in assay [1] was over 100 µM; in assay [2], 97.5 µM; in assay [3], 74.2 µM; in assay [4], over 100 µM; in assay [5], over 100 µM; in assay [6], over 100 µM. Also, the TGI came to 24.1 µM in assay [7] and 26.1 µM in assay [8].
For `CCN1C(=O)N(CC)C2C1NN=c1s/c(=C\c3cccc([N+](=O)[O-])c3)c(=O)n12` (stereo not drawn), the GI50 in assay [1] was 0.0468 µM; in assay [2], over 100 µM; in assay [3] it was 0.567 µM; in assay [4] it was 0.0471 µM; in assay [5], 0.382 µM; in assay [6], 0.0502 µM. Also, the GI50 in assay [7] is 0.0511 µM; in assay [8], 0.0397 µM. For the same molecule, the TGI in assay [1], in assay [2], in assay [3], in assay [4], in assay [5] and in assay [6] was over 100 µM throughout. Moreover, the TGI was 1.17 µM in assay [7] and 0.396 µM in assay [8].
With `N#C/C(=C\c1cccc2cnccc12)N1N=NC2C=CC=CC21` (stereo not drawn), the GI50 in assay [1] was 3.35 µM; in assay [2] it was 4.54 µM; in assay [3] it was 2.92 µM; in assay [4], 2.53 µM; in assay [5], 2.63 µM; in assay [6], 2.46 µM. The GI50 in assay [7] was 3.19 µM; in assay [8], 2.65 µM. The TGI in assay [1] is over 100 µM; in assay [2] it was over 100 µM; in assay [3] it was over 100 µM; in assay [4], over 100 µM; in assay [5], over 100 µM; in assay [6], 9.16 µM. The results for the TGI in assay [7] and in assay [8] were over 100 µM and 9.23 µM, respectively.
With `Cn1c(C(C)(C)OC(=O)Oc2ccccc2)cnc1[N+](=O)[O-]`, the TGI was over 100 µM in assay [1]; over 100 µM in assay [2]; over 100 µM in assay [3]; 51.7 µM in assay [4]; over 100 µM in assay [5]; over 100 µM in assay [6]. For the same molecule, the TGI in assay [7] and in assay [8] was over 100 µM throughout.
Take `O=C(c1ccccc1O)c1[nH]c(Cl)c(Cl)c1-n1c(C(=O)c2ccccc2O)cc(Cl)c1Cl`: the GI50 in assay [1] is 0.869 µM and 0.716 µM; in assay [2] it was 1.58 µM and 1.99 µM; in assay [3] it was 2.41 µM and 1.86 µM; in assay [4], 2.76 µM and 0.446 µM; in assay [5], 0.549 µM; in assay [6], 0.849 µM and 0.623 µM. Further, the GI50 in assay [7] was 0.314 µM and 0.22 µM; in assay [8], 1.67 µM and 1.74 µM. Besides, the TGI is 13.2 µM and 12.7 µM in assay [1]; 5.88 µM and 9.95 µM in assay [2]; 19.4 µM and 10.7 µM in assay [3]; 15.2 µM and 15.1 µM in assay [4]; 10 µM in assay [5]; 10.9 µM and 9.66 µM in assay [6]. In addition, the TGI in assay [7] is 1.38 µM and 0.589 µM; in assay [8] it was 10.1 µM and 10.9 µM.
As to `Cc1cc(S(N)(=O)=O)c(S/C(=N\Nc2ccc([N+](=O)[O-])cc2)c2ccc3ccccc3c2)cc1Cl`, the GI50 in assay [1] was 33.4 µM; in assay [2], 30.1 µM; in assay [3] it was 61.1 µM; in assay [4], 42.6 µM; in assay [5] it was 17.9 µM; in assay [6], 2.19 µM. The figures for the GI50 in assay [7] and in assay [8] were 16.5 µM and 4.1 µM, respectively. Besides, the TGI in assay [1] was over 100 µM; in assay [2], 78.3 µM; in assay [3] it was over 100 µM; in assay [4], over 100 µM; in assay [5], 64.3 µM; in assay [6], 8.86 µM. The TGI in assay [7] amounted to 36.8 µM; in assay [8], 18.7 µM.
